Test results as given in a melting point compilation (Tetko et al.; mined from patent text by program, amines drawn as free bases though some values may be those of a salt).

**Q.** With `CNC(=O)On1c(C(F)(F)F)nc2nc(Br)c(Cl)c(Br)c21` as the compound, how does the melting point read?
**A.** 216 °C

**Q.** With `Cc1cc([N+](=O)[O-])ccc1OC1CCN(C(=O)OC(C)(C)C)CC1` as the compound, how does the melting point read?
**A.** 82 to 83 °C

**Q.** With `COC(C)CNc1nccc(-c2ccnc(Nc3cccc(F)c3)c2)n1` (stereo not given) as the compound, how does the melting point read?
**A.** 103 to 105 °C

**Q.** For `C=CCCC(C#N)(C#N)Cc1ccc(OCC=C)cc1`, which melting point is on record?
**A.** 77.7 °C

**Q.** With `CCc1ccc(COc2ccc(CC(NC(=O)c3cc4cc(-c5ccc(Cl)cc5)ccc4s3)C(=O)O)cc2)cc1` (stereo not given) as the compound, how does the melting point read?
**A.** 205 °C

**Q.** For `O=C(O)CCc1ccc(OCCCCc2cc(-c3ccc(C(F)(F)F)cc3)no2)cc1`, which melting point is on record?
**A.** 130 to 131 °C

**Q.** Which melting point does the source give for `Cc1ccc(-c2cccc(C#N)c2)cc1` here?
**A.** 59 to 61 °C

**Q.** With `Cc1cc(F)ccc1-c1nc(NC2CCCCC2)nc2c1ccc(=O)n2-c1ccccc1F` as the compound, how does the melting point read?
**A.** 181 to 182 °C

**Q.** Which melting point does the source give for `O=C(O)c1ccc2c(c1)C(=O)c1ccccc1S2(=O)=O` here?
**A.** 276 °C

**Q.** For `Cc1ccccc1CC1(CO)CCN(C(=O)OC(C)(C)C)CC1`, which melting point is on record?
**A.** 104 to 106 °C

**Q.** With `CCCc1c(OCC(O)COc2cccc(N)c2C#N)ccc(C(C)=O)c1O` (stereo not given) as the compound, how does the melting point read?
**A.** 123 to 125 °C

**Q.** For `CCOC(=O)N1N=C(c2ccc([N+](=O)[O-])cc2)c2cc(Cl)c(Cl)cc2CC1C` (stereo not given), which melting point is on record?
**A.** 106 to 108 °C

**Q.** Which melting point does the source give for `CCOC(=O)CCCCCCn1c(=O)c(=O)[nH]c2cc(Br)ccc21` here?
**A.** 187 to 190 °C

**Q.** For `CCOC(=O)N1CCN(c2nc(N(C(C)=O)C3CC3)ccc2[N+](=O)[O-])CC1`, which melting point is on record?
**A.** 90 to 93 °C

**Q.** For `Nc1cc(Br)ccc1-c1ccccc1F`, which melting point is on record?
**A.** 40 to 42 °C

**Q.** For `CCN1CC(=O)Nc2cc(Nc3ncc(Cl)c(Nc4ccccc4S(=O)(=O)C(C)C)n3)c(OC)cc2C1`, which melting point is on record?
**A.** 175 °C

**Q.** Which melting point does the source give for `CCCc1ccc(CCNC(C)=O)cc1` here?
**A.** 52 °C

**Q.** Which melting point does the source give for `Cc1c(-c2ccncc2)[nH]c2c1C(=O)CC(C)(C)C2` here?
**A.** 241 to 242 °C

**Q.** For `COC(=O)c1sccc1Oc1ncc(OC)c(OC)n1`, which melting point is on record?
**A.** 107 to 109 °C

**Q.** For `CCOC(=O)C=Cc1c(OCc2ccc(OCc3nc(-c4ccccc4)oc3C)cc2)ccc2ccccc12`, which melting point is on record?
**A.** 73 to 74 °C

**Q.** Which melting point does the source give for `O=C1SC(Cc2ccc(OCCON=Cc3ccc(-c4ccccc4)cc3)cc2)C(=O)N1C(c1ccccc1)(c1ccccc1)c1ccccc1` (stereo not given) here?
**A.** 157 to 159 °C

**Q.** For `OCC1OC(n2cnc3c(NCc4ccc(Br)cc4)ncnc32)C(O)C1O` (stereo not given), which melting point is on record?
**A.** 179 °C

**Q.** With `COC(=O)Cc1coc2cc(OCc3cc(-c4ccc(Cl)cc4)on3)ccc12` as the compound, how does the melting point read?
**A.** 136 to 137 °C

**Q.** For `CCc1nc(N)nc(N)c1-c1ccc(N(C)C)c([N+](=O)[O-])c1`, which melting point is on record?
**A.** 256 to 258 °C

**Q.** For `COC(=O)CSc1cc(C)ccc1[N+](=O)[O-]`, which melting point is on record?
**A.** 74 to 75 °C

**Q.** For `CCOP(=O)(OCC)C(O)[C@H](CC1CCCCC1)NC(=O)[C@H](CC(C)C)NC(=O)[C@H](Cc1ccccc1)NC(=O)OC(C)(C)C` (stereo not given in full), which melting point is on record?
**A.** 173 to 175 °C

**Q.** Which melting point does the source give for `O=C1Oc2ccc(Br)cc2C1c1ccc(Cl)cc1Cl` (stereo not given) here?
**A.** 149 to 150 °C

**Q.** For `CCCc1c2c(cc3c(=O)cc(C(=O)OCC)oc13)CC(C(=O)OCC)CC2` (stereo not given), which melting point is on record?
**A.** 89.5 to 90.5 °C

**Q.** For `Nc1ncccc1OCc1ccc(Cl)cc1`, which melting point is on record?
**A.** 121 to 123 °C

**Q.** For `C[C@@H](n1ncn(-c2ccncc2)c1=O)[C@@]1(c2ccc(F)cc2F)CO1`, which melting point is on record?
**A.** 96 to 97 °C

**Q.** For `O=C(Oc1ccccc1)c1ccc(O)cc1O`, which melting point is on record?
**A.** 135 to 137 °C

**Q.** With `Cc1cnc2c3c(nccc13)C(=O)c1ccccc1-2` as the compound, how does the melting point read?
**A.** 208 to 210 °C

**Q.** With `Cc1cccc(-c2n[nH]cc2-c2ccc(F)c(-c3ccc(OCCO)cn3)c2)n1` as the compound, how does the melting point read?
**A.** 148 to 151 °C

**Q.** Which melting point does the source give for `CCOC(=O)c1cn(-c2c[nH]nn2)c2cc(F)c(F)cc2c1=O` here?
**A.** 298 °C

**Q.** With `COc1cc(Nc2nccc(-c3ccc(Br)cc3)n2)cc(OC)c1OC` as the compound, how does the melting point read?
**A.** 179 °C

**Q.** Which melting point does the source give for `CCOC(=O)c1ncc2[nH]c3c(C(C)(C)C)cc(C(C)(C)C)cc3c2c1C` here?
**A.** 260 to 263 °C

**Q.** For `O=C(O)Cn1c(-c2ccc([N+](=O)[O-])cc2)nc2cccnc21`, which melting point is on record?
**A.** 249 to 251 °C

**Q.** For `CCOC(=O)/C=C\n1c(=O)n2nc(C(=O)OCC)cc2c2ccc(Cl)cc21`, which melting point is on record?
**A.** 215 to 217 °C

**Q.** Which melting point does the source give for `CN1C(=O)[C@H](NC(=O)C2CCC3(CC2)CCN(C(=O)OC(C)(C)C)CC3)N=C(c2ccccc2)c2ccccc21` here?
**A.** 135 to 138 °C

**Q.** With `O=C(Nc1cnc2c(c1)nc1n2CCC1O)c1cc2cc(C(F)(F)F)cnc2n1Cc1cccc(F)c1` (single isomer, unassigned; (-)) as the compound, how does the melting point read?
**A.** 279 to 280 °C

**Q.** For `O=C(O)c1ccc(-c2nc(-c3cccnc3)cs2)cc1`, which melting point is on record?
**A.** 303 to 304 °C

**Q.** Which melting point does the source give for `O=C(O)CCc1cc2cc(Cl)ccc2n1S(=O)(=O)c1cccc(C(F)(F)F)c1` here?
**A.** 203 to 206 °C

**Q.** Which melting point does the source give for `CC(C)(C)c1cc(CN)nn1-c1ccc(S(C)(=O)=O)cc1` here?
**A.** 138 to 145 °C

**Q.** Which melting point does the source give for `O=C(O)Cc1ccc(N2CC3=C(CCCC3)C2=O)cc1` here?
**A.** 189 to 191 °C

**Q.** Which melting point does the source give for `O=[N+]([O-])c1c(Cl)cccc1-c1nc2ccccc2[nH]1` here?
**A.** > 260 °C

**Q.** For `CCCO[C@@H]1C[C@@H](C(=O)NC)N(S(=O)(=O)c2ccc(Cl)c(CBr)c2Cl)C1`, which melting point is on record?
**A.** 62 °C

**Q.** Which melting point does the source give for `O=S(=O)(c1ccccc1Cl)N1CCNc2ncc(I)cc21` here?
**A.** 146 to 147 °C

**Q.** Which melting point does the source give for `CCCCCNC(=O)CCCO` here?
**A.** 41 to 43 °C

**Q.** With `COc1cc(Nc2ccccn2)ccc1C(N)=O` as the compound, how does the melting point read?
**A.** 226 to 227 °C

**Q.** For `CC(C)(C)NCC(O)c1cc(F)c(N)cc1F` (stereo not given), which melting point is on record?
**A.** 115 to 116 °C
